Target: T1, UIS3 (PfUIS3) (Plasmodium falciparum, UniProt Q8IEU1)
T1 construct: gene PF3D7_1302200; recombinant His-mycUIS3, His tag cleaved; with LC3
Assay: ITC, C4 ([…]) titrated into a saturated solution of UIS3 with LC3, one-site model
Format: binding

T1 sequence (Q8IEU1 entry or part of it): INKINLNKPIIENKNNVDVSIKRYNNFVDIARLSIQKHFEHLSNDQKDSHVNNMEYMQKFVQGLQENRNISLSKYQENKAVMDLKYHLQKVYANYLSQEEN

Kd: 0.241 µM
Structure (SMILES): N#Cc1ccc(C(=O)N2CCN(Cc3ccc(-c4noc(-c5cccc(C(F)(F)F)c5)n4)cc3)CC2)cc1 [C4, 4-{[4-(4-{5-[3-(trifluoromethyl)phenyl]-1,2,4-oxadiazol-3-yl}benzyl)piperazino]carbonyl}benzonitrile]

— publication PMC7677311, “Disrupting Plasmodium UIS3–host LC3 interaction with a small molecule causes parasite elimination from host cells” (Communications Biology, 2020)
